In brackets after ≈: the same amount, converted by molar mass.
Assay: Solubility of various forms of Compound I in water and pH 1, pH 2 (HCl/KCl) buffers at 25° C., HPLC analysis
Format: physicochemical
Conditions: stirring 300 rpm, saturated solution; for Solubility, pH 1 Buffer: pH 1 HCl/KCl buffer; for Solubility, pH 2 Buffer: pH 2 HCl/KCl buffer
Description: Solubility of Various Forms of Compound I in Water and pH1, pH2 Buffers
Solubility was measured by adding 25 mg of the various forms of Compound I or an amount adequate to maintain a saturated solution in water and pH 1, pH 2 (HCl/KCl buffers). Temperature of 25° C. and a stirring rate of 300 rpm were maintained by using a HEL Crystal Scan unit (HEL, UK). Samples were withdrawn at the times indicated, filtered and analyzed by HPLC for Compound I using the method described below.
HPLC Method for Measurement of CEP11981 Content of Solubility Samples
Testing was performed on a calibrated ThermoFinnigan High Performance Liquid Chromatography (HPLC) system designated LC-0410-AD. The system comprises a P4000 pump, AS3000 autosampler, and UV2000 detector. A TCM 2000 temperature control module was used to heat the column. All standard solutions and samples were prepared in Class A glass volumetric flasks and were placed in autosampler vials. Standard weightings were done using a calibrated Mettler analytical balance. The sample preparations were centrifuged using an Eppendorf microcentrifuge. The primary chromatography data was acquired and integrated using ChromQuest software. Microsoft Office Excel 2003 was used for the calculation of results.
Column: MS C18, 150×4.6 mm ID, 3.5μ Waters, m Xterra packing
Column Temperature: 30° C.
Detector: UV/VIS @ 270 nm
Mobile Phase A: 10 mM Ammonium Acetate (aqueous)
Mobile Phase B: 10 mM Ammonium Acetate in sample solvent

Solubility, pH 1 Buffer [mcg/mL] | Solubility, pH 2 Buffer [mcg/mL] | Solubility, Water [µg/mL] | Structure (SMILES)
23 | 0.3 | <1 | CC(C)Cn1c2ccc(Nc3ncccn3)cc2c2c3c(c4c(c21)CCc1nn(C)cc1-4)C(=O)NC3 [pTSA-A1, 11-isobutyl-2-methyl-8-(2-pyrimidinylamino)-2,5,6,11,12,13-hexahydro-4H-indazolo[5,4-a]pyrrolo[3,4-c]carbazol-4-one]
20000 | 0.04 | <1 | CC(C)Cn1c2ccc(Nc3ncccn3)cc2c2c3c(c4c(c21)CCc1nn(C)cc1-4)C(=O)NC3 [AS, 11-isobutyl-2-methyl-8-(2-pyrimidinylamino)-2,5,6,11,12,13-hexahydro-4H-indazolo[5,4-a]pyrrolo[3,4-c]carbazol-4-one]
11 | 5 | 20 (≈ 41.9 µM) | CC(C)Cn1c2ccc(Nc3ncccn3)cc2c2c3c(c4c(c21)CCc1nn(C)cc1-4)C(=O)NC3 [pTSA-A2, 11-isobutyl-2-methyl-8-(2-pyrimidinylamino)-2,5,6,11,12,13-hexahydro-4H-indazolo[5,4-a]pyrrolo[3,4-c]carbazol-4-one]
